Results: ChEMBL document CHEMBL4024771, “Optimization of Orally Bioavailable Enhancer of Zeste Homolog 2 (EZH2) Inhibitors Using Ligand and Property-Based Design Strategies: Identification of Development Candidate …” (J Med Chem, 2018)

Assays:
[1] = system: Mus musculus; experiment: Time at which free plasma concentration stays above antiproliferative KARPAS422 cells IC90 level in mouse xenografted with human KARPAS422 cells at 300 mg/kg, po bid
[2] = system: Mus musculus; experiment: Time at which free plasma concentration stays below antiproliferative KARPAS422 cells IC90 level in mouse xenografted with human KARPAS422 cells at 100 mg/kg, po bid
[3] = Clearance in rat at 2 mg/kg, iv; type: ADME, organism-based; details: in vivo
[4] = target: T1, Cytochrome P450 1A2 (Homo sapiens, UniProt P05177); experiment: Inhibition of CYP1A2 (unknown origin); type: ADME
T1 sequence (P05177 whole entry): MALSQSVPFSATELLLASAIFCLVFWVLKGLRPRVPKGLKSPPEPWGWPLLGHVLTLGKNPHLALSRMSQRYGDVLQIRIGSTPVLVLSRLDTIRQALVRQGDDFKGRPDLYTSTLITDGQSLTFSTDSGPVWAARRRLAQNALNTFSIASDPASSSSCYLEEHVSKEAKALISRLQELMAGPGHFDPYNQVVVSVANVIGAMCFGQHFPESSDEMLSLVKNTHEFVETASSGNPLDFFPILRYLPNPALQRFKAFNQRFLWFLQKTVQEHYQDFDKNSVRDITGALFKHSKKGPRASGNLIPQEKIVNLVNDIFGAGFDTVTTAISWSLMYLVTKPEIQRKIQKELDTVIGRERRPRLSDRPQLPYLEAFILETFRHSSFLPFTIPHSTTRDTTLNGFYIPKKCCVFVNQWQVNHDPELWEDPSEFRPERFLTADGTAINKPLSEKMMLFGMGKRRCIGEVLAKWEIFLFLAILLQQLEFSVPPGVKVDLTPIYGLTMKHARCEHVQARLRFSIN

[5] = target: T2, Cytochrome P450 2C8 (Homo sapiens, UniProt P10632); experiment: Inhibition of CYP2C8 (unknown origin); type: ADME
T2 sequence (P10632 whole entry): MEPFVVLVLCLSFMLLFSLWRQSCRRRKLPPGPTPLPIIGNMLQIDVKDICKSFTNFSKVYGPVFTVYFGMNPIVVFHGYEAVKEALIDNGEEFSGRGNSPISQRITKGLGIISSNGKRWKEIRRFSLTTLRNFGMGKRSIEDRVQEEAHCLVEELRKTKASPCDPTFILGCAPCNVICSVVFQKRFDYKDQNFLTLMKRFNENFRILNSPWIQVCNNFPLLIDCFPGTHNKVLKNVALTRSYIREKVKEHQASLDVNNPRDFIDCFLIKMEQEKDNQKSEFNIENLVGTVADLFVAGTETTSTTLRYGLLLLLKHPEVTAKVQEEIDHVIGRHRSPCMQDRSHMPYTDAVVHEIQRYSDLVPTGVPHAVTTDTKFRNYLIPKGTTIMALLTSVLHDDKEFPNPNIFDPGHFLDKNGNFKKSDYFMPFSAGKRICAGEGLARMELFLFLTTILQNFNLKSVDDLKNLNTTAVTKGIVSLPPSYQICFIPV

[6] = target: Cytochrome P450 2C19 (Homo sapiens, UniProt P33261); experiment: Inhibition of CYP2C19 (unknown origin); type: ADME
[7] = target: Cytochrome P450 3A4 (Homo sapiens, UniProt P08684); experiment: Inhibition of CYP3A4 (unknown origin); type: ADME
Sequence of Cytochrome P450 3A4 (P08684 whole entry): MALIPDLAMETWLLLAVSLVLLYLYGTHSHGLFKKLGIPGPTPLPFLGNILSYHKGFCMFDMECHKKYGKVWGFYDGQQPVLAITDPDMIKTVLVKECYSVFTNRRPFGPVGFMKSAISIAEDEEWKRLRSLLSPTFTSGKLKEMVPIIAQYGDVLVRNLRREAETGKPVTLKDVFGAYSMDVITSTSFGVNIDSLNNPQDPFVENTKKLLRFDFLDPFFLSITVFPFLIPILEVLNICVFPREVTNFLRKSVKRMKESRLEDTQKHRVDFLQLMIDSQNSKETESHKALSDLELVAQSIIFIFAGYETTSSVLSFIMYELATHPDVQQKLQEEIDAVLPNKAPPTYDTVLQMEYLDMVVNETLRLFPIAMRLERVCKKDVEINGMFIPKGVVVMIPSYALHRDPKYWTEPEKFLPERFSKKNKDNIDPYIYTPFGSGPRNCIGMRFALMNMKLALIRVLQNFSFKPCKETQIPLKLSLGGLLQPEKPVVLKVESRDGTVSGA

Sequence of Cytochrome P450 2C19 (P33261 whole entry): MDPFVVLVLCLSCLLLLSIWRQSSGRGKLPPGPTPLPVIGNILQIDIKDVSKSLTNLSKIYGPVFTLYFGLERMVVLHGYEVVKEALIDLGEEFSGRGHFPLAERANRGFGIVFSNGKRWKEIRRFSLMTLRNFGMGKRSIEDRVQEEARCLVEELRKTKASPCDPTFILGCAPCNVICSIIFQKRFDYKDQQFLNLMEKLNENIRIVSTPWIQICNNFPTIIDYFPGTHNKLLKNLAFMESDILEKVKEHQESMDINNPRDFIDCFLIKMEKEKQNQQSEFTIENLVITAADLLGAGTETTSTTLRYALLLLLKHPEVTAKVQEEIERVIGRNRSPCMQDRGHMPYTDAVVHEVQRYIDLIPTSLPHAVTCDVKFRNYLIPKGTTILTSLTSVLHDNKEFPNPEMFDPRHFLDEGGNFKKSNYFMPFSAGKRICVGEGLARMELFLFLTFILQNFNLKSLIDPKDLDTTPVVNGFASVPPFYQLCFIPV

clearance [3]: 70 mL/min/kg
IC50 [4]: > 30 µM
IC50 [5]: > 30 µM
IC50 [6]: > 30 µM
IC50 [7]: > 30 µM
SMILES: COc1cc(C)[nH]c(=O)c1CN1CCc2c(Cl)cc([C@H](OC)C3COC3)c(Cl)c2C1=O [MEVROMETOSTAT]
Time [1]: 24 h
Time [2]: 7 to 24 h
